Source: US11203576B2, “Aurora kinase and Janus kinase inhibitors for prevention of graft versus host disease” (H. LEE MOFFITT CANCER CENTER AND RESEARCH INSTITUTE, INC., priority 2016, dated 2021)

Key:
[1] = system: xenogeneic GVHD (NSG mice transplanted with human PBMCs); test: Xenogeneic GVHD model; assay type: in vivo
Source text: After transplantation and treatment with either AJI-100 or vehicle control, human T cells were isolated from recipient mouse spleens at day +14, stained for pH3Ser^10 or pSTAT3 (+IL-6 stimulation), and analyzed as described.
NOD scid gamma (NSG) mice (male or female, 6-24 weeks old) were purchased from Jackson Laboratory (Bar Harbor, Me., USA) and raised per an IACUC-approved protocol in adherence to the NIH Guide for the Care and Use of Laboratory Animals. Mice received either (i) alisertib (30 mg/kg daily), TG101348 (45 mg/kg twice a day), a combination of alisertib and TG101348, or vehicle (methylcellulose) by oral gavage or (ii) AJI-100 (50 mg/kg daily) or vehicle (50% polyethylene glycol, 15% 2-hydroxypropyl-b-cyclodextrin, and 10% DMSO in sterile saline) ip from day 0 to day +14.
Mice were monitored for GVHD clinical scores (K. R. Cooke et al., An experimental model of idiopathic pneumonia syndrome after bone marrow transplantation: I. The roles of minor H antigens and endotoxin. Blood 88, 3230 (1996)), weight, and premoribund status. As indicated, mice were euthanized on day +14 to study recipient spleen Tconv, Tregs, TH1, TH17, B cells, and T-cell signal transduction. Human CD4^+ Treg (CD25+, CD127^−, Foxp3^+), Tconv(CD25^+, CD127^+), TH1, TH17, and CD19^+ B cells residing in recipient spleens were quantified by flow cytometry. T-cell pH3 ser10 and PSTAT3 were evaluated by flow cytometry. IL-17 ELISPOTs were performed using isolated human T cells from recipient mouse spleen as described above. Tissue samples were prepared, stained (Ventana Medical Systems, Tucson, Ariz.), and imaged (Vista, Calif., USA) to identify human T-cells as previously described. All vertebrate animal work was IACUC-approved.

[2] = system: H3 Ser10 (target of Aurora); test: H3 Ser10 phosphorylation in DC-allostimulated T-cells (flow cytometry); assay type: cell-based, human; details: 5-day allogeneic DC stimulation; AJI 750 nM, alisertib 1.75 μM, TG101348 350 nM
Procedure: After 5 days, T cells were then harvested and directly fixed (Cytofix, BD Biosciences) for 10 min at 37° C. After washing with phosphate-buffered saline, the T cells were permeabilized with icecold methanol (90%, v/v) for at least 20 min at -20° C. The cells were stained for expression of CD3 and pH[…].

[3] = day +14, 50 mg/kg daily, vs vehicle

NC(=O)c1ccc(Nc2ncc(F)c(Nc3ccccc3)n2)cc1 [bisanilinopyrimidine (II), 5-Fluoro-N4-phenyl-N2-[4-(4-carboxamide)phenyl]pyrimidine-2,4-diamine]
overall survival ([1]; 50 mg/kg daily i.p. day 0 to +14, 56 days of observation): 71.4% | overall survival of the mice ([1]; AJI-100 50 mg/kg daily ip day 0 to +14, vs vehicle): significantly improved | H3 ser10 phosphorylation in human T-cells harvested from mice [1, 3]: less H3 ser10 phosphorylation | pSTAT3+ human T cells harvested from recipient spleens [1, 3]: significantly reduced | H3 ser10 phosphorylation in human T-cells harvested from mice ([1]; day +14, 50 mg/kg daily, vs vehicle, listed as AJI-100): significantly reduced | GVHD severity (pathology) in liver and lung ([1]; day +14, vs vehicle): significantly reduced | Treg frequency in the liver ([1]; day +14, vs vehicle): similar | absolute number of Tregs in recipient spleens ([1]; day +14, vs vehicle): significantly reduced | absolute number of activated CD4+ Tconv in recipient spleens ([1]; day +14, vs vehicle): significantly reduced | absolute number of total CD4+ T cells in recipient spleens ([1]; day +14, vs vehicle): significantly reduced | absolute number of total spleen cells and human CD3+ T-cells in spleens ([1]; day +14, vs vehicle): similar | percentage of CD4+ alloreactive Tconv in the spleen ([1]; day +14, vs vehicle): similar | ratio of human Treg to CD4+ alloreactive/activated Tconv in recipient spleens ([1]; day +14, vs vehicle): significantly increased | relative amount of human Tregs in the spleen ([1]; day +14, vs vehicle): significantly increased | spleen-resident human TH1 T cells ([1]; day +14, vs vehicle): significantly reduced | spleen-resident human TH17 T cells ([1]; day +14, vs vehicle): significantly reduced | tissue-infiltrating human T cells in recipient liver (and lung) ([1]; day +14, vs vehicle): dramatically reduced | tissue-infiltrating human T cells in recipient liver (and lung) ([1]; day +14, vs vehicle, listed as AJI-100): significantly decreased | surviving mice with limited fur/skin changes without significant weight loss ([1]; day +56): 60% | onset and severity of GVHD ([1]; dosing day 0 to +14, vs vehicle): reduced the severity of GVHD | tolerability in mouse models ([1]; mouse, in vivo): tolerated | average GVHD clinical scores ([1]; surviving treated mice at day +56): < 2 | CD8+ T cell and CD19+ B cell reconstitution (absolute numbers) ([1]; vs vehicle): suppressive effect | frequencies of CD4+ and CD8+ T cells and CD19+ B cells ([1]; vs vehicle): similar | phosphorylation of histone 3 serine 10 (pH3 Ser10) in T-cells [2]: reducing the phosphorylation
